# Data taken from patent US20090162855A1, “Identification of Genetic Variants Associated with Increased Severity of Pulmonary Disease” (CASE WESTERN RESERVE UNIVERSITY, priority 2007, published 2009).
# Square brackets hold non-standard residues; d marks the D form. Peptide text beside a SMILES is read from it.
# Experiments:
# [1] = test system: tracheal smooth muscle cells; assay: Mitogenic index by BrdU incorporation in primary cultures of tracheal smooth muscle cells; type: cell-based, human; conditions: for proliferation (BrdU incorporation), treated vs untreated: cultures from 9 individuals, estrogen 72 hrs
# Excerpt: (§1) A cellular phenotype that could potentially explain the genotype-phenotype association is a difference in smooth muscle proliferation. To be able to assess this in vitro, we have carried out studies examining the mitogenic effects of the receptor agonist, endothelin, on cultured smooth muscle cells, as well as those of estrogen and Transforming Growth Factor Beta 1 (TGFβ1). In these studies, TGFβ1 is used as a control mitogen in that it exerts its effect on proliferation independent of the endothelin receptor. […] Primary cultures of tracheal smooth muscle cells from 4 individuals were treated with TGFβ1, estrogen, endothelin, or estrogen and endothelin (Estr/Endo) for 72 hrs, and assayed for mitogenic index by BrdU incorporation (FIG. 8A) or for cell number (FIG. 8B). Values shown are ratios of treated to untreated (control) cells grown simultaneously. Each cell line and condition was carried out in triplicate. […] An EDNRA antagonist, BQ123 (Sigma), was included at 1 μM to determine if EDNRA-mediated effects could be blocked.
# A larger group of cell lines stratified by genotype was examined. Primary cultures of tracheal smooth muscle cells from 9 individuals were treated with estrogen for 72 hrs, assayed for BrdU incorporation and compared to control cultures (no estrogen). FIG. 9 provides the ratio of treated to untreated cells. […] Treatment with estrogen appears to result in increased proliferation, but the effect is genotype dependent. This is in contrast to other reports of vascular smooth muscle in which estrogen inhibits proliferation.
# smooth muscle cells = assay: Intracellular calcium mobilization from sarcoplasmic reticulum measured using Fura-2; type: cell-based; conditions: 24 hrs in endothelin, washout
# Procedure: FIG. 12 is a graph showing the response of cultures of smooth muscle cells to endothelin-1 (ET-1) acutely (control) and sarcoplasmic reticulum release of calcium measured by Fura-2 fluorescence ratios.
# Smooth muscle cells of various EDNRA genotype combinations were examined for changes in intracellular calcium in response to endothelin. The effects of chronic exposure were assessed by incubating the cells for 24 hrs in endothelin, followed by a brief washout (30 minutes) and then re-exposure to endothelin and measurement of calcium release. […] For these assays, intracellular calcium mobilization from sarcoplasmic reticulum was measured using Fura-2. No significant differences were observed between subjects with regards to magnitude or duration of response from acute stimulation (FIG. 12, control). However, if cultured for 24 hrs in the presence of endothelin, washed out just before reexposure, there is a significant difference between subjects in the magnitude of response (FIG. 12, ET-1 conditioned).
# human ASM cells = assay: Actin stress fiber formation (TRITC-phalloidin) in cultured ASM cells; type: cell-based; conditions: cultured in presence of ET-1 for 24 hours; preliminary data
# Excerpt: FIG. 11 is a pair of micrographs of cultured ASM cells placed in either serum free media (A) or media containing ET-1 (B) for 24 hr; and
# EDNRA is expressed on airway and vascular smooth muscle. Using indirect immunocytochemical staining of human ASM cells from the trachealis muscle retrieved from necroscopy tissue of 53 individuals, we have determined these cells consistently display EDNRA on the cell membrane (FIG. 10—staining is predominantly along cell membranes). […] This implies a functional receptor with ligand binding and intact intracellular signaling pathways.
# [2] = test system: tracheal smooth muscle cells; type: cell-based, human; conditions: cultures from 4 individuals, 72 hrs
# Excerpt: as §1
# EDNRA mRNA = assay: Quantitative RT-PCR of EDNRA mRNA in smooth muscle cell lines treated with estrogen; type: cell-based, human; conditions: 9 smooth muscle cell lines (5 female, 4 male), estrogen 24 hours, vs unstimulated cells, 18S rRNA internal control
# Procedure: Effects of these variants on EDNRA mRNA levels were examined. Primary airway smooth muscle cells from 10 non-CF individuals were harvested for DNA and RNA. Airway smooth muscle cells were cultured from tracheas obtained from autopsy. Cells were isolated from human trachealis muscle by digesting with collagenase and elastase in the presence of soybean trypsin inhibitor at 37° C. as previously described. The cells were harvested by centrifugation after filtering through Nytex and grown in Dulbecco's modified eagle's medium (DMEM/F12 1:1) containing 10% fetal bovine serum, 100 U/ml penicillin and 100 μg/ml streptomycin at 37° C. in a humidified atmosphere with 5% CO2 and 95% air. DNA samples were genotyped for rs1801708 and rs5335 and EDNRA mRNA quantified from total RNA by real time RT-PCR. EDNRA mRNA was quantified relative to 18s rRNA in 10 airway smooth muscle cell lines and compared by genotype. RNA was isolated from airway smooth muscle cells using the Qiagen RNeasy kit. […] A Ct was established for each sample and compared to standard curves to determine mRNA quantity. […] Values are expressed as a ratio of EDNRA: 18s copies. […]
# Nine smooth muscle cell lines were exposed to estrogen and mRNA levels compared to unstimulated cells. […] Quantitative RT-PCR was carried out to determine copy number using 18S rRNA as an internal control. […]
molecule,measurement,setting,value
CC(C)C[C@@H]1NC(=O)[C@@H](C(C)C)NC(=O)[C@@H]2CCCN2C(=O)[C@@H](CC(=O)O)NC(=O)[C@@H](Cc2c[nH]c3ccccc23)NC1=O [BQ123] (cyclo(L[dW][dD]P[dV])),mitogenic index of cells with EDNRA antagonist included,[1]; BQ123 at 1 μM,reduced the mitogenic index
CC[C@H](C)[C@H](NC(=O)[C@H](CC(=O)O)NC(=O)[C@H](CC(C)C)NC(=O)[C@H](Cc1c[nH]cn1)NC(=O)[C@@H]1CSSC[C@H](N)C(=O)N[C@@H](CO)C(=O)N[C@H]2CSSC[C@H](NC(=O)[C@H](CCC(=O)O)NC(=O)[C@H](CCCCN)NC(=O)[C@H](CC(=O)O)NC(=O)[C@H](CCSC)NC(=O)[C@H](CC(C)C)NC(=O)[C@H](CO)NC(=O)[C@H](CO)NC2=O)C(=O)N[C@@H](C(C)C)C(=O)N[C@@H](Cc2ccc(O)cc2)C(=O)N[C@@H](Cc2ccccc2)C(=O)N1)C(=O)N[C@H](C(=O)N[C@@H](Cc1c[nH]c2ccccc12)C(=O)O)[C@@H](C)CC [endothelin-1],calcium release activity lost on re-exposure,"smooth muscle cells; cells with ""adverse"" genotypes",10-15%
same,"calcium release activity on re-exposure, of pre-exposure activity","smooth muscle cells; cells with ""protective"" genotype of 3′ markers",15%
same,formation of actin stress fibers,human ASM cells,increases the formation of actin stress fibers
Transforming Growth Factor Beta 1 [TGFβ1],"cell number, ratio of treated to untreated cells",[2],did not significantly alter cell number
same,"mitogenic index (BrdU incorporation), ratio of treated to untreated cells","[1]; cultures from 4 individuals, 72 hrs",tripled
estrogen,"proliferation (BrdU incorporation), treated vs untreated","[1]; cells with ""protective"" GG genotype",no effect
same,"proliferation (BrdU incorporation), treated vs untreated","[1]; cells with ""severe"" AA genotype",increase proliferation
same,increase of EDNRA mRNA levels in response to hormone treatment,EDNRA mRNA,approximately 5 fold
